From patent publication US6054459A, “Substituted 1,2,3,4-tetrahydro-5-nitro-pyrimidines” (priority 1994, dated 2000)
Read-outs that look alike come from different tables or passages of the source.

Legend:
Ctenocephalides felis = assay: In-vitro flea test (all stages of development); type: in vivo; conditions: no adult fleas after 11/2 times the development time
Method: In-vitro flea test (all stages of development)
Test object: All stages (eggs, larvae, pupae and adults) of Ctenocephalides felis.
Test method: Bloodmeal is dried overnight in a shallow dish at approximately 70° C. and subsequently screened using a mesh size of 0.63 mm.
1.8 g portions of the bloodmeal which has been prepared in this manner are placed into plastic Petri dishes .o slashed. 9.8 cm.
Using an Eppendorf pipette, 0.2 ml of the substance are added to the 1.8 g portions of bloodmeal (dilution 1:10). This means that for a use concentration of 1 ppm, the aqueous solution must have a concentration of 10 ppm. The solution is applied dropwise and uniformly over the entire area covered by the bloodmeal.
The dishes which have been prepared in this manner are allowed to dry overnight. Using a suitable device, the substance, now in the form of dried lumps of bloodmeal, is broken up and distributed homogeneously in the Petri dish by swirling. To the test dishes which have been prepared in this manner there is now added a spatula--tipful of flea eggs which have been obtained by screening (and which are derived from experimentally infected cats). The dish is sealed using Parafilm and shaken vigorously.
The test materials are incubated at 25° C. and a relative humidity of 85%. At certain intervals, the dishes are examined for stages of development of the fleas.
Test criterion: The criterion for the in-vitro activity of a substance is defined as the inhibition of flea development, or a standstill during the development before reaching the adult stage.
Effective: No adult fleas found after 11/2 times the development time.
Ineffective: Adult fleas found after 11/2 times the development time.

[1] = system: Lucilia cuprina res. larvae; assay: Test with resistant Lucilia cuprina larvae; type: in vivo; conditions: for mortality at 100 ppm: Lucilia cuprina, read-out: effectiveness (degree of destruction)
Method: Test with resistant Lucilia cuprina larvae
Emulsifier: 35 parts by weight of ethylene glycol monomethyl ether 35 parts by weight of nonylphenol polyglycol ether
To produce a suitable preparation of active compound, three parts by weight of active compound are mixed with seven parts by weight of the abovementioned mixture and the concentrate thus obtained is diluted with water to the particular desired concentration.
About 20 Lucilia cuprina res. larvae are introduced into a test tube which contains approx. 1 cm^3 of horse meat and 0.5 ml of the preparation of active compound. After 24 hours, the degree of destruction is determined.

[2] = system: Musca domestics, strain WHO(N); assay: Fly test; type: in vivo; conditions: 6 h, read-out: activity (flies destroyed)
Method: Test animals: Musca domestics, strain WHO(N)
Solvent: 35 parts by weight of ethylene glycol mono-methyl ether
35 parts by weight of nonylphenol polyglycol ether
To produce a suitable formulation, three parts by weight of active compound are mixed with seven parts of the abovementioned solvent-emulsifier mixture and the emulsion concentrate thus obtained is diluted with water to the particular desired concentration.
2 ml of this preparation of active compound are pipetted onto paper filter discs (.o slashed. 9.5 cm) located in Petri dishes of a suitable size. After the discs have dried, 25 test animals are transferred into the Petri dishes and covered.
After 6 hours, the activity of the preparation of active compound is determined. The activity is expressed in %. 100% means that all flies have been destroyed; 0% means that no flies have been destroyed.

Nephotettix cincticeps = assay: Nephotettix test; type: in vivo, Nephotettix cincticeps (green rice leafhopper); conditions: 144 h, after 6d, read-out: Degree of destruction in % after 6d
Method: Solvent: 7 parts by weight of dimethylformamide
(§1) Emulsifier: 1 part by weight of alkylaryl polyglycol ether
To produce a suitable preparation of active compound, 1 part by weight of active compound is mixed with the stated amount of solvent and the stated amount of emulsifier, and the concentrate is diluted with water to the desired concentration.
Rice seedlings (Oryza sativa) are treated by being dipped into the preparation of active compound of the desired concentration and are infested with larvae of the green rice leafhopper (Nephotettix cincticeps) while the seedlings are still moist.
After the desired period of time, the destruction in % is determined. 100% means that all the leafhoppers have been killed; 0% means that none of the leafhoppers have been killed.

Aphis fabae = assay: Critical concentration test/root-systemic action; type: in vivo; conditions: 48 h, 20 ppm in soil, infested after 7 days, evaluated after a further 2 days, read-out: Degree of destruction in % at active compound concentrations in ppm (root-systemic action)
Method: Critical concentration test/root-systemic action
Solvent: 4 parts by weight of acetone
as §1
To produce a suitable preparation of active compound, 1 part by weight of active compound is mixed with the stated amount of solvent, the stated amount of emulsifier is added and the concentrate is diluted with water to the desired concentration.
The preparation of active compound is intimately mixed with soil. The concentration of the active compound in the preparation is of practically no importance, only the amount by weight of active compound per unit volume of soil, which is given in ppm (=mg/1), being decisive. The treated soil is transferred into pots and these are planted with pregerminated broad beans. The active compound can in this way be taken up from the soil by the roots of the plants and be transported into the leaves.
After a further 2 days, the evaluation is made by counting or estimating the dead animals. The root-systemic action of the active compound is deduced from the mortality figures. It is 100% if all test animals have been killed and 0% if just as many test insects are still alive as in the case of the untreated control.

SMILES	inhibition at 10 ppm (Ctenocephalides felis) [%]	activity compared with the prior art ([1]; 24 hours)	mortality at 100 ppm ([1]; 24 h) [%]	logP (physchem)	other results
O=C(NCCN1CC([N+](=O)[O-])=C2N(Cc3ccc(Cl)nc3)CCN2C1)OCc1ccccc1 [Example 18]	100	superior activity compared with the prior art			mortality at 100 ppm ([1]; 100 ppm, 24 hours): 100%
CCOC(=O)NCCN1CC([N+](=O)[O-])=C2N(Cc3ccc(Cl)nc3)CCN2C1 [Example 3, 6,7-dihydro-6-(2-ethoxy-carbonylamino-ethyl)-8-nitro-(5H)-3-(2-chloropyridin-5-yl-methyl)-imidazolidino-[2,3-f] -pyrimidine]	100	superior activity compared with the prior art	100		
O=[N+]([O-])C1=C2N(Cc3ccc(Cl)nc3)CCN2CN(CCCCCO)C1 [II-13]				0.97	
CC(C)NC(=O)OCCN1CC([N+](=O)[O-])=C2N(Cc3ccc(Cl)nc3)CCN2C1 [Example 14]		superior activity compared with the prior art	100		
O=[N+]([O-])C1=C2N(Cc3cnc(Cl)s3)CCN2CN(CCCCO)C1 [II-17]				0.58	
O=[N+]([O-])C1=C2N(Cc3ccc(Cl)nc3)CCN2CN(CCCCCCO)C1 [II-14]				0.74	
CC(C)(C)OC(=O)NCCN1CC([N+](=O)[O-])=C2N(Cc3ccc(Cl)nc3)CCN2C1 [Example 16]	100	superior activity compared with the prior art	100		mortality at 1000 ppm [2]: 100%
O=[N+]([O-])C1=C2N(Cc3ccc(Cl)nc3)CCCN2CN(CCOCC(F)(F)F)C1 [drawing 134, reference compound]					mortality at 1e-05 % (Nephotettix cincticeps; active compound concentration 0.00001 %): 0%; mortality at 0.0001 % (Nephotettix cincticeps; active compound concentration 0.0001 %): 60%; mortality at 0.001 % (Nephotettix cincticeps; active compound concentration 0.001 %): 100%
CC(C)(C)C(=O)NCCN1CC([N+](=O)[O-])=C2N(Cc3ccc(Cl)nc3)CCN2C1					mortality at 20 ppm (Aphis fabae): 100%
